The results in this text go back to ChEMBL document CHEMBL1938317, “Structure-based de novo design and biochemical evaluation of novel BRAF kinase inhibitors” (Bioorg Med Chem Lett, 2012).

In the experiment the target is Serine/threonine-protein kinase B-raf (Homo sapiens, UniProt P15056).
Serine/threonine-protein kinase B-raf, sequence (P15056 whole entry): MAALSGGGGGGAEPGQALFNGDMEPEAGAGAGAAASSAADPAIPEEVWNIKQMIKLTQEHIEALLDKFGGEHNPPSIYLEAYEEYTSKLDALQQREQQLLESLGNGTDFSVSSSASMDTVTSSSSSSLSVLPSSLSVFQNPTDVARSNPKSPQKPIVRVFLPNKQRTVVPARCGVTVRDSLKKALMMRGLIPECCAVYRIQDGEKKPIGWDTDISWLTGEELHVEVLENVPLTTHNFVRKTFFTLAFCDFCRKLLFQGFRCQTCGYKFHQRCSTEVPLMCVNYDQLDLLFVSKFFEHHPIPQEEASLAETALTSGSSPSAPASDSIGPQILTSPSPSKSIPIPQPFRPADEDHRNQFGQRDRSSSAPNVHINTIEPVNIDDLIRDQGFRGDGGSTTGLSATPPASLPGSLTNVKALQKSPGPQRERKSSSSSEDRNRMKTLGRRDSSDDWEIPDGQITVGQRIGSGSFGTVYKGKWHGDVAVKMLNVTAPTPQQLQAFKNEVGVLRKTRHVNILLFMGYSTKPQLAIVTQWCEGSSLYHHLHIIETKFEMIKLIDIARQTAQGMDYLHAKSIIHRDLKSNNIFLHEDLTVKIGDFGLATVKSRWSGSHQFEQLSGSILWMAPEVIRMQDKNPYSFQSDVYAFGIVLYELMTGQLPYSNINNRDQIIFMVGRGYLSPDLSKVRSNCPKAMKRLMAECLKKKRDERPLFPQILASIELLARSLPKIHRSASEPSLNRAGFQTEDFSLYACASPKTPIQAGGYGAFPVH
Description: Inhibition of BRAF by high-throughput assay
`COc1cc(Nc2nc(N)nc3nc[nH]c23)cc(OC)c1OC`: the dissociation constant Kd – broadly, the equilibrium constant for the complex coming apart – was determined as 4.1 µM. That is a single-digit micromolar value.

Turning to `NS(=O)(=O)c1ccc(Nc2nncc3c(-c4ccc(O)cc4)cccc23)cc1`, the affinity, expressed as Kd, was 4.7 µM.

Turning to `Nc1nc(Nc2cccc(Br)c2)c2[nH]cnc2n1`, the Kd was found to be 2.2 µM. This Kd is about 2.1-fold lower than that of the compound before.

Turning to `c1nc2c(Nc3ccc4c(c3)OCCO4)nc(Nc3ccc4c(c3)OCCO4)nc2[nH]1`, the dissociation constant (Kd) came to 5.2 µM.

The compound `Cc1ccc(Nc2nncc3c(-c4ccc(O)cc4)cccc23)cc1` gave an equilibrium dissociation constant (Kd) of 4.7 µM. The Kd values of the last two compounds are within 1.5-fold of each other.

As to `CN(C)C(=O)Cc1ccc(-c2cccc3c(Nc4cccc(O)c4)nncc23)cc1`, the Kd was 9.6 µM.

`Nc1nc(Nc2ccc(Cl)c(Cl)c2)c2nc[nH]c2n1` had a Kd of 3.6 µM.

`Nc1nc(Nc2ccc(F)c(Cl)c2)c2nc[nH]c2n1` returned a Kd of 3.2 µM.

`Oc1ccc(-c2cccc3c(Nc4cccc(O)c4)nncc23)cc1` returned a Kd of 5.1 µM. Against the preceding compound, the Kd is about 1.6-fold higher.

As for `COc1ccc(Nc2nc(N)nc3[nH]cnc23)cc1OC`, the dissociation constant Kd worked out at 5.1 µM.

`CCC(=O)c1cccc(Nc2nc(N)nc3nc[nH]c23)c1` yielded a dissociation constant Kd of 2.8 µM. This Kd is about 1.8-fold lower than that of the compound before.

As for `CC(=O)Nc1ccc(Nc2ncnc3nc[nH]c23)cc1`, the Kd turned out to be 0.79 µM. Compared with the last compound, the Kd is about 3.5-fold lower.

In turn, `Nc1nc(Nc2cccc(O)c2)c2[nH]cnc2n1` registered a Kd of 5.8 µM.

`O=C(O)c1ccc(Nc2ncnc3nc[nH]c23)cc1` had an equilibrium dissociation constant (Kd) of 9.4 µM.

On to `COc1ccc(Nc2nncc3c(-c4ccc(O)cc4)cccc23)cc1`, for which the affinity, expressed as Kd, was 3.7 µM.

The compound `COc1cc(Nc2nc(N)nc3[nH]cnc23)cc(OC)c1` came in with a Kd of 3.1 µM.

With `Nc1nc(Nc2cccc(F)c2)c2[nH]cnc2n1`, the dissociation constant (Kd) was found to be 4.8 µM.

In the case of `Nc1nc(Nc2cccc(Cl)c2)c2nc[nH]c2n1`, binding was put at a Kd of 3 µM.

`NC(=O)Cc1ccc(Nc2nncc3c(-c4ccc(O)cc4)cccc23)cc1` gave a Kd of 8 µM. This Kd lies about 2.7-fold higher than the previous one.

In turn, `NC(=O)COc1ccc(Nc2nncc3c(-c4ccc(O)cc4)cccc23)cc1` yielded a dissociation constant Kd of 2.5 µM.

In turn, `Nc1nc(Nc2ccccc2O)c2[nH]cnc2n1` yielded a Kd of 2 µM.

`Nc1nc(Nc2cccc(C(F)(F)F)c2)c2[nH]cnc2n1`: the dissociation constant Kd came out at 1.7 µM.
